Test results: US11644469B2, “HIF-1 and HIF-2 inhibitors” (UNIVERSITY OF SOUTHAMPTON, priority 2016, dated 2023)
Where two headings read alike, the source gives them in different places. Residues, ends and D or L forms follow the SMILES beside them.

How the values were obtained:
[1] = system: HIF-2α (Trx-2α, 2α PASB); experiment: Thermal shift assay, HIF-2α; format: binding; settings: effective inhibitors decrease the melting temperature
Method: (§1) The binding of the compounds to their targets was assessed by measuring changes in the melting temperature of their target proteins HIF-1α and HIF-2α (known as a thermal shift assay) and by microscale thermophoresis (MST). The data for the thermal shift assay is summarized in FIG. 1, while the binding constants (Kd) derived from MST is shown in FIG. 3. Compounds that are effective inhibitors decrease the melting temperatures of the proteins. […] The compounds may bind to HIF 1α/2α or 1β in order to disrupt the dimerization, and PASB may be the responsible domain.
(§2) Thermal shift data of thioredoxin-tagged longer constructs and PASB domains with the identified polypeptides are shown in FIG. 1. Compounds that are effective inhibitors decrease the melting temperatures of the proteins.
(§3) Thermal denaturation of HIF proteins was performed in 20 μL reactions in triplicate using a Bio-Rad CFX Connect Real-Time System. Proteins were used at either 5 μM (Trx-1α, Trx-2α and GST-1β) or 15 μM (His-tagged PASB domains) in HIF assay buffer, with 10 mM DTT and SYPRO orange dye (Life Technologies) at a final concentration of 8× (relative to 5000× stock), and supplemented with either DMSO or compound dissolved in DMSO at the stated concentrations. The reaction plate was assembled on ice, then transferred to the pre-chilled thermal cycler, held at 10° C. for 5 min (heated lid, 105° C.), then the temperature ramped to 95° C. Fluorescence was recorded at 0.5° C. increments, holding for 5 sec at each temperature. Data were plotted using GraphPad Prism 6, and melting temperatures calculated using the first derivative method in which the peak (i.e. the steepest transition between data points) represents the point at which 50% of the protein sample is denatured. Errors are quoted as the inherent error associated with the first derivative of the data, i.e. ±0.25° C. for Tm values and ±0.5° C. for ΔTm values.

[2] = target: T1, HIF-2α (Trx-2α, 2α PASB) (Homo sapiens, UniProt Q99814); experiment: Thermal shift assay, HIF-2α; format: binding; settings: 1 mM compound
T1 construct: 240-350; made in house
Method: as §1, §2, §3

[3] = system: HIF-1α (Trx-1α, 1α PASB); experiment: Thermal shift assay, HIF-1α; format: binding; settings: effective inhibitors decrease the melting temperature
Method: as §1, §2, §3

[4] = target: T2, HIF-1α (Trx-1α, 1α PASB) (Homo sapiens, UniProt Q16665); experiment: Thermal shift assay, HIF-1α; format: binding; settings: 1 mM compound
T2 construct: 238-349; made in house
Method: as §1, §2, §3

[5] = target: T3, HIF-1β (GST-1β, 1β PASB) (Homo sapiens, UniProt P27540); experiment: Thermal shift assay, HIF-1β (negative control); format: binding; settings: for activity against HIF-1β in thermal shift assay: negative control protein
T3 construct: 356-474; made in house
Method: as §1, §2, §3

[6] = system: HIF-1β (GST-1β, 1β PASB); experiment: Thermal shift assay, HIF-1β (negative control); format: binding; settings: 1 mM compound; GST-1β 5 μM
Method: as §1, §2, §3

[7] = system: MCF-7 cells; experiment: Cell permeability and localisation by fluorescence microscopy; format: cell-based; settings: 24 hr
Method: FIGS. 10A-D and 10A′-D′ show cell permeability tested using fluorescently labeled-CRVIIF (SEQ ID NO 4) in MCF-7 cells.
For initial compound permeability experiments, 1.5 mL MCF-7 cells were plated on 3 cm petri dishes (200,000 cells/plate) and grown at 37° C. After 24 hr, cells were incubated with fresh media containing the stated concentrations of fluor-CRVIIF (SEQ ID NO 4) (0.5% DMSO) or 66 μM CP-61 control compound (0.66% DMSO) for a further 24 hr. Cells were washed twice with PBS and imaged live in plates. For co-localisation experiments, an 8-well Lab-Tek Chamber Slide (Nunc) was treated with collagen prior to plating 25,000 MCF-7 cells/well. After 24 hr, cells were dosed with 300 μL fresh media containing the stated concentrations of fluor-CRVIIF (SEQ ID NO 4) (0.5% DMSO) and/or 5 μg/mL FM 4-64FX Membrane Stain (Life Technologies) and incubated for a further 24 hr. Cells were washed with 2×300 μL PBS, fixed with 150 μL 10% formalin in PBS for 5-10 min, then washed again with PBS. Growth chambers were removed and nuclear staining was achieved using Vectashield Mounting Medium with DAPI (Vector Laboratories) prior to sealing the slide with a coverslip. Cells were imaged using a fluorescent microscope.

[8] = His-tagged PASB domain 15 μM, read-out: ΔTm 2α PASB
[9] = Trx-2α 5 μM, read-out: ΔTm Trx-2α
[10] = His-tagged PASB domain 15 μM, read-out: ΔTm 1α PASB
[11] = Trx-1α 5 μM, read-out: ΔTm Trx-1α
[12] = 1 mM compound, His-tagged PASB domain 15 μM

T3 sequence (P27540 356-474): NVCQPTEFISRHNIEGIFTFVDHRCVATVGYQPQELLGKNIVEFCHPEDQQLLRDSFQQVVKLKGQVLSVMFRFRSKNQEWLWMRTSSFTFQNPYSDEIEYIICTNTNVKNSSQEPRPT

Molecule	ΔTm at 1000 µM [2, 8]	ΔTm at 1000 µM [2, 9]	ΔTm at 1000 µM [4, 10]	ΔTm at 1000 µM [4, 11]	ΔTm at 1000 µM [5, 12]	activity against HIF-1β in thermal shift assay [5]	ΔTm 2α PASB ([2]; His-tagged PASB domain 15 μM)	ΔTm Trx-2α ([2]; Trx-2α 5 μM)	ΔTm 1α PASB ([4]; His-tagged PASB domain 15 μM)	ΔTm Trx-1α ([4]; Trx-1α 5 μM)	ΔTm 1β PASB [5, 12]	activity against HIF-2α in thermal shift assay [1]	activity against HIF-1α in thermal shift assay [3]	ΔTm GST-1β [6]	cell permeability [7]
CC[C@H](C)[C@@H]1NC(=O)[C@H](CC(C)C)NC(=O)[C@H](CCCCN)NC(=O)[C@H](CS)NC(=O)[C@H](Cc2ccccc2)NC(=O)[C@H]([C@@H](C)CC)NC1=O [CKLIIF] (cyclo(CKLIIF); ring closure inferred)	-2.5 °C	-2.5 °C	-1 °C	-1.5 °C	-0.5 °C	not against HIF-1β	–	–	–	–	–	show activity	show activity	–	–
CC[C@H](C)[C@@H]1NC(=O)[C@H](C(C)C)NC(=O)[C@H](CCCNC(=N)N)NC(=O)[C@H](CS)NC(=O)[C@H](Cc2ccccc2)NC(=O)[C@H]([C@@H](C)CC)NC1=O [CRVIIF, cyclo-CRVIIF] (cyclo(CRVIIF); ring closure inferred)	-2.5 °C	-2 °C	-1.5 °C	-1 °C	-0.5 °C	not against HIF-1β	–	–	–	–	–	show activity	show activity	−0.5 °C	–
fluor-CRVIIF: fluorescently labelled cyclo-CRVIIF; FITC-maleimide bound to the cysteine (cyclo(C(FITC‑maleimide)RVIIF); listed as Homo sapiens)	–	–	–	–	–	–	–	–	–	–	–	–	–	–	appears to cross cell membrane

The next lines start with results.

ΔTm at 1000 µM [2, 8]	ΔTm at 1000 µM [2, 9]	ΔTm at 1000 µM [4, 10]	ΔTm at 1000 µM [4, 11]	ΔTm at 1000 µM [5, 12]	activity against HIF-1β in thermal shift assay [5]	ΔTm 2α PASB ([2]; His-tagged PASB domain 15 μM)	ΔTm Trx-2α ([2]; Trx-2α 5 μM)	ΔTm 1α PASB ([4]; His-tagged PASB domain 15 μM)	ΔTm Trx-1α ([4]; Trx-1α 5 μM)	ΔTm 1β PASB [5, 12]	Molecule	activity against HIF-2α in thermal shift assay [1]	activity against HIF-1α in thermal shift assay [3]	ΔTm GST-1β [6]	cell permeability [7]
-4 °C	-4 °C	-2 °C	0.5 °C	-1 °C	not against HIF-1β	–	–	–	–	–	CC[C@H](C)[C@@H]1NC(=O)[C@H](CC(C)C)NC(=O)[C@H](CC(C)C)NC(=O)[C@H](CCCNC(=N)N)NC(=O)[C@H](CS)NC(=O)[C@H](Cc2ccccc2)NC1=O [CRLLIF, cyclo-CRLLIF] (cyclo(CRLLIF); ring closure inferred)	show activity	show activity	–	–
–	–	–	–	–	–	−2.5 °C	−2 °C	−0.5 °C	−2.5 °C	−0.5 °C	SGWEMIQRR (cyclic; listed as Homo sapiens)	–	only active against HIF-1α	–	–
